Reference: US12410152B2, “Oxazole and thioazole-type cullin ring ubiquitin ligase compounds and uses thereof” (Proxygen GmbH, priority 2019, dated 2025)

Columns and labels:
[1] = tested on: UBE2Mresc KBM7 cells; experiment: Cell viability assay, KBM7 UBE2M rescue (UBE2M cDNA re-introduced); format: cell-based, human; conditions: Table 1, data of FIG. 4; 3-day treatment; read-out: LC50 UBE2Mresc
Experimental: KBM7 cells with the specified genetic backgrounds were grown in IMDM supplemented with 10% FBS and 1% penicillin/streptomycin (pen/strep). AsPC1, HCT116, NCI-H446 and 293T cells were grown in DMEM 10% FBS and 1% pen/strep. MV4; 11, Jurkat and Be (2) C cells were grown in RPMI 10% FBS 1% pen/strep. KBM7, AsPC1 and HCT116 cells expressing Cas9 were generated using the plasmid Lenti_Cas9_Blasti (Addgene #52962). The lentiviral plasmid lentiGuide-Puro (Addgene #52963) was used to express sgRNAs against the genes UBE2M (in KBM7-Cas9, AsPC1-Cas9 and HCT116-Cas9 cells), UBE2G1 (in KBM7-Cas9 cells) and […] (in KBM7-Cas9 cells). The lentiviral plasmid lentiGuide-Puro-IRES-mCherry (modified from Addgene #52963) was used to express sgRNAs against CUL4A (in KBM7-Cas9 cells). The lentiviral plasmid pLenti-PGK-Hygro-DEST-UBE2M was generated by Gateway cloning (empty destination vector Addgene #19066), and used to generate UBE2M^resc KBM7 cells.
Indeed, >20 compounds were identified that fulfilled this criteria. […] The initial screening assay was conducted at two concentrations (10 μM and 500 nM). The dose ranging differential effect of these four hits was assessed/validated, comparing their activity in KBM7WT vs UBE2MMUT cells. […] A genetic rescue experiment, where UBE2M cDNA was re-introduced into the UBE2Mmut clone (UBE2Mresc), did (at least partically) reconstitute the initial sensitivity to the assessed compounds (FIG. 4, Table 1).
KBM7^WT, mutant KBM7 clones (UBE2M^mut, UBE2M^resc, UBE2G1^mut CUL4A^mut, CUL4B^mut), and 3-day doxycycline pretreated KBM7^iCas9_sgDDB1 cells were seeded at a cell density of 50,000 cells/mL in 96-well plates with DMSO or drug, in triplicates. Drugs used: IC020772.1/IC020772.1X, IC021313.2/IC021313.2X, T6938051/T6938051X or THZ531. Cells were treated for 3 days, after which cell viability was assessed according to manufacturer's protocol (CellTiter Glo, Promega G7570). Survival curves and EC50 values were calculated by best-fit analysis of the log 10 drug concentration to fold change of drug-treated cells over DMSO-treated cells. […]

[2] = tested on: CDK12/13; experiment: CDK12/13 destabilization (expression proteomics and Western blot); format: cell-based, human; conditions: KBM7 cells
Experimental: The hypomorphic phenotype of the mutated UBE2M allele in KBM7 cells (KBM7 UBE2M^mut cells) was assessed. In this regard, CRISPR/Cas9-induced mutation of UBE2M inactivated CRL activity including CRL4^CRBN and CRL2^VHL. […] Additionally, CCNK destabilization by all three compounds was validated via time-resolved immunoblots wherein CCNK degradation was evident after two hours (FIG. 19c).
PBS-washed cell pellets were lysed in 50 mM Tris pH 7.9, 8M Urea and 1% CHAPS and incubated with shaking at 4° C. for at least 30 min. 20 μg of supernatants were run and transferred for detection. Antibodies used: CUL1 (Santa Cruz Biotechnology, sc-1276), CUL2 (Sigma-Aldrich, SAB2501565-100), CUL3 (Cell Signaling Technology, 2759), CUL4A (Cell Signaling Technology, 2699S), CUL4B (Proteintech, 12916-1-AP), CUL5 (Santa Cruz Biotechnology, sc-373822), UBE2M (Santa Cruz Biotechnology, sc-390064), DDB1 (Cell Signaling Technology, 5428S), CCNK (Bethyl, A301-939A), CDK12 (Cell Signaling Technology, 11973S), CDK13 (Bethyl, A301-458A), RBM39 (1:500, Santa Cruz Biotechnology sc-376531), V5 (Cell Signaling Technology, 13202), Ubiquityl-Histone H2A (K119) (Cell Signaling, 8240-20). ACTIN (Sigma-Aldrich, A5441), VINCUL1N (Santa Cruz Biotechnology, sc-25336). Secondary antibodies anti-mouse/rabbit/goat (Jackson ImmunoResearch 115-035-003, 111-035-003 and 705-035-003).
Comparison of overall proteome-wide changes in KBM7 cells treated with IC020772.1 (2.5 μM), IC021313.2 (7 μM) or T6938051 (3.5 μM) for 5 h and 12h, using quantitative proteomics based on isobaric tagging.

SMILES | CC50 [1] | CDK12/13 destabilization [2]
Cc1ccc(C(=O)N2CSCC2C(=O)N=c2[nH]cc(C)s2)o1 (stereo not drawn) [Compound T6938051] | 1150 nM | milder CDK12/13 destabilization
O=C(CSc1nnc2c(n1)[nH]c1ccccc12)Nc1ccc(Cl)cn1 [IC020772.1] | 750 nM | milder CDK12/13 destabilization
O=C(CSc1nc2ccccc2[nH]1)Nc1ccc(Cl)cn1 [IC021313.2] | 1940 nM | milder CDK12/13 destabilization
